The results in this text go back to patent EP1289507B1, “USE OF AN ALDOSTERONE ANTAGONIST FOR THE TREATMENT OR PROPHYLAXIS OF ALDOSTERONE-MEDIATED PATHOGENIC EFFECTS” (priority 2000, dated 2001).

The series can be described thus: Pharmacokinetics and absorption after IV and oral [14C]eplerenone in the rat. It is filed as in vivo. To be noted: for half-life / clearance: iv, IV 15 mg/kg; for half-life / clearance / Cmax / bioavailability: 15 mg/kg; for Cmax / bioavailability: po; for Cmax: Cmax of total eplerenone. As for the experimental part:
Plasma, urine and fecal samples were analyzed for total radioactivity.

As to `COC(=O)[C@@H]1CC2=CC(=O)CC[C@]2(C)[C@@]23O[C@@H]2C[C@@]2(C)[C@@H](CC[C@@]24CCC(=O)O4)[C@H]13` [Eplerenone, Pregn-4-ene-7,21-dicarboxylic acid, 9,11-epoxy-17-hydroxy-3-oxo-, γ-lactone, methyl ester, (7α, 11α, 17β)-], the “systemic availability of total radioactivity” value reads like this: (oral 15 mg/kg, female rat) 66.4%; (oral 15 mg/kg, male rat) 59.6%. Moreover, the “mean Cmax of total radioactivity” value runs as follows: (oral 15 mg/kg, female rats) 7.67 µg equivalents/mL; (oral 15 mg/kg, male rats) 7.64 µg equivalents/mL. Further, the half-life was 1.14 h (rat, plasma, elimination half-life of eplerenone, female rat); 1.14 h (rat, plasma, elimination half-life of total eplerenone, female rat, closed plus open form); 1.01 h (rat, plasma, elimination half-life of total eplerenone, male rat, lactone ring closed form plus open form). Further, the clearance (rat, plasma, plasma clearance (CL) of eplerenone, female rat) was 20 mL/min/kg; the clearance (rat, plasma, plasma clearance (CL) of total eplerenone, female rat) was 11.6 mL/min/kg; the clearance (rat, plasma, plasma clearance (CL) of total eplerenone, male rat) is 16.4 mL/min/kg. The Cmax reads like this: (rat, plasma, oral 15 mg/kg, female rat) 6350 ng/mL; (rat, plasma, oral 15 mg/kg, male rat) 3200 ng/mL. The bioavailability reads like this: (rat, plasma, systemic availability of eplerenone, oral 15 mg/kg, female rat) 66.1%; (rat, plasma, systemic availability of eplerenone, oral 15 mg/kg, male rat) 25.6%; (rat, plasma, systemic availability of total eplerenone, oral 15 mg/kg, female rat) 74.2%; (rat, plasma, systemic availability of total eplerenone, oral 15 mg/kg, male rat) 29.4%. The Tmax (rat, plasma, oral 15 mg/kg, male rats) stood at 0.5 h.

A word on the half-life: it is how long it takes for the measured level to halve. As usually defined, the Cmax is the peak of the concentration-time curve. As usually defined, the bioavailability is dose-corrected exposure relative to a reference, in per cent. The low end stands for poor availability, the high end for good availability. As a reminder, the Tmax is the time at which the peak concentration occurs.
